In ChEMBL document CHEMBL4507274 (2021):

Tests used:
[1] = target: Histamine H1 receptor (Homo sapiens) (UniProt P35367); details: Compound concentration 10.0 uM
[2] = target: Ribosomal protein S6 kinase alpha-6 (Homo sapiens) (UniProt Q9UK32); details: Compound concentration 100.0 nM
[3] = target: RAC-alpha serine/threonine-protein kinase (Homo sapiens) (UniProt P31749); details: Compound concentration 100.0 nM
[4] = target: Receptor-interacting serine/threonine-protein kinase 4 (Homo sapiens) (UniProt P57078); details: Compound concentration 100.0 nM
[5] = target: Casein kinase II subunit alpha' (Homo sapiens) (UniProt P19784); details: Compound concentration 100.0 nM
[6] = target: Homeodomain-interacting protein kinase 1 (Homo sapiens) (UniProt Q86Z02); details: Compound concentration 100.0 nM
[7] = target: Death-associated protein kinase 2 (Homo sapiens) (UniProt Q9UIK4); details: Compound concentration 100.0 nM
[8] = target: Dual specificity tyrosine-phosphorylation-regulated kinase 1B (Homo sapiens) (UniProt Q9Y463); details: Compound concentration 100.0 nM
[9] = target: Macrophage colony-stimulating factor 1 receptor (Homo sapiens) (UniProt P07333); details: Compound concentration 100.0 nM
[10] = target: Cyclin-dependent kinase 4 (Homo sapiens) (UniProt P11802); details: Compound concentration 100.0 nM
[11] = target: Cyclin-dependent kinase 15 (Homo sapiens) (UniProt Q96Q40); details: Compound concentration 100.0 nM
[12] = target: T1, Mitogen-activated protein kinase 13 (Homo sapiens) (UniProt O15264); details: Compound concentration 100.0 nM
T1 sequence (whole entry): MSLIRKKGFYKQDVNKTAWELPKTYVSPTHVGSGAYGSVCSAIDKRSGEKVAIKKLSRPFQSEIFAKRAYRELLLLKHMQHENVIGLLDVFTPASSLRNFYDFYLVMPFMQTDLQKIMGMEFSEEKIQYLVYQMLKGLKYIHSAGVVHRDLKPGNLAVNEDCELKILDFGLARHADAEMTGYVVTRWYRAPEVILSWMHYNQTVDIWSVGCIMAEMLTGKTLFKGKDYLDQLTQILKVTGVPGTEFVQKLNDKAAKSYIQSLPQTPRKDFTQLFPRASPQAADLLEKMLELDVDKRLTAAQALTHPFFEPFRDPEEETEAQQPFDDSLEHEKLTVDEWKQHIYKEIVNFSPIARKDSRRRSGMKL

[13] = target: Mitogen-activated protein kinase kinase kinase 10 (Homo sapiens) (UniProt Q02779); details: Compound concentration 100.0 nM
[14] = target: T2, Serine/threonine-protein kinase D1 (Homo sapiens) (UniProt Q15139); details: Compound concentration 100.0 nM
T2 sequence (whole entry): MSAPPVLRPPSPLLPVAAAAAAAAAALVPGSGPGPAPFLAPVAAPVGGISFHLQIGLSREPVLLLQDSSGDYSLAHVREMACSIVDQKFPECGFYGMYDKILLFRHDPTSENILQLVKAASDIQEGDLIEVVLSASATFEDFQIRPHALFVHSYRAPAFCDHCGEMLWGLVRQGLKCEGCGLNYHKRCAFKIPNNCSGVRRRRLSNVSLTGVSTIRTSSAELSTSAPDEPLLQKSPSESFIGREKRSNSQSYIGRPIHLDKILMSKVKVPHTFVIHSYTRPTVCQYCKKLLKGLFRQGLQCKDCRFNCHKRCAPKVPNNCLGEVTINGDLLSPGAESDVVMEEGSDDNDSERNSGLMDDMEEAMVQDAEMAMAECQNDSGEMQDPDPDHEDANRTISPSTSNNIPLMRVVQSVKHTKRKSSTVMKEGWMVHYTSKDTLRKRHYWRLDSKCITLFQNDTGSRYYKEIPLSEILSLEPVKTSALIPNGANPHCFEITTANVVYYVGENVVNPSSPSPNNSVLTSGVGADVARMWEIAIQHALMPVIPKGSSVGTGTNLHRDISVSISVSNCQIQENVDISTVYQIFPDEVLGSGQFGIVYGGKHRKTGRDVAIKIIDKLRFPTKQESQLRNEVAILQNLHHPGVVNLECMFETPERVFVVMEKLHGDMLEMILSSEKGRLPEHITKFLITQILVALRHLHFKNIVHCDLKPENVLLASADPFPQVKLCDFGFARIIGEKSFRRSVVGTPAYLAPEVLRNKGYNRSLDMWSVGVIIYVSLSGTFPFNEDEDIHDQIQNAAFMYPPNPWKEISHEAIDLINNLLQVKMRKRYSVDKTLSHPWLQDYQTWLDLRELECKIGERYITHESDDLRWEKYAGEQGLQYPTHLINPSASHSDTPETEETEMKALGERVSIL

[15] = target: NUAK family SNF1-like kinase 2 (Homo sapiens) (UniProt Q9H093); details: Compound concentration 100.0 nM
[16] = target: Tyrosine-protein kinase Blk (Homo sapiens) (UniProt P51451); details: Compound concentration 100.0 nM
[17] = target: Non-receptor tyrosine-protein kinase TYK2 (Homo sapiens) (UniProt P29597); details: Compound concentration 100.0 nM
[18] = target: Cyclin-dependent kinase-like 3 (Homo sapiens) (UniProt Q8IVW4); details: Compound concentration 100.0 nM
[19] = target: Kappa-type opioid receptor (Homo sapiens, UniProt P41145); assay: GPCRScan assay: inhibition of KOR; parameters: radioligand conc. used [nm] 0.6 – 1.2, parental cells stable HEK
[20] = target: Serine/threonine-protein kinase RIO1 (Homo sapiens) (UniProt Q9BRS2); details: Compound concentration 100.0 nM
[21] = system: Receptor-type tyrosine-protein kinase FLT3 (Homo sapiens), P36888 [N841I]; details: Compound concentration 100.0 nM
[22] = target: Myotonin-protein kinase (Homo sapiens) (UniProt Q09013); details: Compound concentration 100.0 nM

Sequence of Histamine H1 receptor (Homo sapiens) (P35367 whole entry): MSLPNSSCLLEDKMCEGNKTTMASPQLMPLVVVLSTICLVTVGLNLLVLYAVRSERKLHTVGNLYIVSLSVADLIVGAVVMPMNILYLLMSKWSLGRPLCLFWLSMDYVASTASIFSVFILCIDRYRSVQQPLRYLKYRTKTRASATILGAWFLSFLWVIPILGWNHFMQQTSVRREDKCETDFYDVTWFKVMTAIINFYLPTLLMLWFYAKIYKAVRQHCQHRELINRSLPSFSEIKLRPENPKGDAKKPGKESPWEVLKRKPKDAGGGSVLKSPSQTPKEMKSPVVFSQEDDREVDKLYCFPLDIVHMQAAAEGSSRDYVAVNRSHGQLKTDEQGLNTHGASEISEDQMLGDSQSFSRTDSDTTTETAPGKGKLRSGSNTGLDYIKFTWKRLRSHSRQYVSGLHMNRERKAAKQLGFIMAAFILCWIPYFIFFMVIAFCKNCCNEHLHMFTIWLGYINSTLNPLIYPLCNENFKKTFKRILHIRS
Sequence of Cyclin-dependent kinase 4 (Homo sapiens) (P11802 whole entry): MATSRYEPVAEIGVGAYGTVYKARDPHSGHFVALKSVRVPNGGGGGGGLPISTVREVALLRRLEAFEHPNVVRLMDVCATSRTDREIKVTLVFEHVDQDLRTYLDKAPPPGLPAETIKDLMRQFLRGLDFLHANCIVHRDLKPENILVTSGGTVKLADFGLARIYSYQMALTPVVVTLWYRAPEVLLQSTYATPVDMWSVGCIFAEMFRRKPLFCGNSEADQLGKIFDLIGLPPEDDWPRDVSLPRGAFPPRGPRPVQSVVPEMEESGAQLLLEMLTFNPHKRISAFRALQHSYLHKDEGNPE
Sequence of Cyclin-dependent kinase-like 3 (Homo sapiens) (Q8IVW4 whole entry, looked up): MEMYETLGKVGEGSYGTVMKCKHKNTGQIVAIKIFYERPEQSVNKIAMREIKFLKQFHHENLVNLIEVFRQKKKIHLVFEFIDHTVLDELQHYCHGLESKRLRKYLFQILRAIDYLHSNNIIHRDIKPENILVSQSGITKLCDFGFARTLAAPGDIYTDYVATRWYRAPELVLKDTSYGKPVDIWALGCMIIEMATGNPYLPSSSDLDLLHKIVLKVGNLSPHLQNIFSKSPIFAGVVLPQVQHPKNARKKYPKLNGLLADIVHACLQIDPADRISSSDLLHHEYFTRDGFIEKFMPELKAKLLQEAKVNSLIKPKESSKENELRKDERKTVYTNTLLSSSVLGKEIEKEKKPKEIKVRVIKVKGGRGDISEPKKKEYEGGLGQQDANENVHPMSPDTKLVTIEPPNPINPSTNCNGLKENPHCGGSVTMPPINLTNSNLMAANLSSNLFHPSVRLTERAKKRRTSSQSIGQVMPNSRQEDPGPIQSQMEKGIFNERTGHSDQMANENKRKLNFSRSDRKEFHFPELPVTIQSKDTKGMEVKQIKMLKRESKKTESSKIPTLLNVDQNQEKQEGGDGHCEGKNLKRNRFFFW
Sequence of RAC-alpha serine/threonine-protein kinase (Homo sapiens) (P31749 whole entry): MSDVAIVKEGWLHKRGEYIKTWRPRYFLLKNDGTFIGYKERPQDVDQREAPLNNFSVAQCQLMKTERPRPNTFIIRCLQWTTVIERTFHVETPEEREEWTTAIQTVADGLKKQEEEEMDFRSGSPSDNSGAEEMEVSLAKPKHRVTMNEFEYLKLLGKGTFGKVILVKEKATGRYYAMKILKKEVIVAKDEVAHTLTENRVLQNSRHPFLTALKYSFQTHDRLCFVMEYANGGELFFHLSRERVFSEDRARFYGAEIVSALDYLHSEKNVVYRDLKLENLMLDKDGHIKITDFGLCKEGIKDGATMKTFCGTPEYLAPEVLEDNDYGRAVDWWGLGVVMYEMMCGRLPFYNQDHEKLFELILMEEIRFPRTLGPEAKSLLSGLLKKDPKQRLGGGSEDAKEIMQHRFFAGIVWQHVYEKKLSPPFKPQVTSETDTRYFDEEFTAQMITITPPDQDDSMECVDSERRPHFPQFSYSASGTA
Sequence of NUAK family SNF1-like kinase 2 (Homo sapiens) (Q9H093 whole entry): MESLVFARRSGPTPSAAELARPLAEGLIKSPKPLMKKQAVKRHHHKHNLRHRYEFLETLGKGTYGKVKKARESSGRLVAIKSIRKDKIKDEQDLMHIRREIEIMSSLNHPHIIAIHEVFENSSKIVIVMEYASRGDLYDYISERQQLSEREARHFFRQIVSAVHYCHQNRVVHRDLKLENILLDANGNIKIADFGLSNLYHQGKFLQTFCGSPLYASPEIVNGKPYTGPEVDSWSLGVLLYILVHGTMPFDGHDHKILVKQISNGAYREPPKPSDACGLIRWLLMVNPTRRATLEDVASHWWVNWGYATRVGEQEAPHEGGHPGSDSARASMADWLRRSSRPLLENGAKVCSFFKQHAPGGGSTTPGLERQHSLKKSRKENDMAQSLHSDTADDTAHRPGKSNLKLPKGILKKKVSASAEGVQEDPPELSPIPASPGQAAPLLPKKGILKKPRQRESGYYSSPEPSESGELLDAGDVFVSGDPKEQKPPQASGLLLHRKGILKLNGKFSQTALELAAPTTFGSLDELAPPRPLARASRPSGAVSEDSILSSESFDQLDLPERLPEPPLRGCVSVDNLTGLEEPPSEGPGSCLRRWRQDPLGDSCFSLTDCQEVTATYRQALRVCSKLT
Sequence of Kappa-type opioid receptor (P41145 whole entry): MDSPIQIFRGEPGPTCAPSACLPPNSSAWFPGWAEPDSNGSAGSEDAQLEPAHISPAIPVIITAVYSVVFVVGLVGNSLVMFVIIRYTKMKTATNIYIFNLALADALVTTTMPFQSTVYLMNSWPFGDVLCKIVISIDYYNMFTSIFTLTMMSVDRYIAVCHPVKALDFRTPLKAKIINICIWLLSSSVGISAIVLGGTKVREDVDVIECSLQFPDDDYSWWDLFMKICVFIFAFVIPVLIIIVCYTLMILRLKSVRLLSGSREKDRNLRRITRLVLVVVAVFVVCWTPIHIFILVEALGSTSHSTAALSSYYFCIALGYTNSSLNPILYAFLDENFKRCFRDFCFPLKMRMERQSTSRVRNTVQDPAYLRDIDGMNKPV
Sequence of Death-associated protein kinase 2 (Homo sapiens) (Q9UIK4 whole entry, looked up): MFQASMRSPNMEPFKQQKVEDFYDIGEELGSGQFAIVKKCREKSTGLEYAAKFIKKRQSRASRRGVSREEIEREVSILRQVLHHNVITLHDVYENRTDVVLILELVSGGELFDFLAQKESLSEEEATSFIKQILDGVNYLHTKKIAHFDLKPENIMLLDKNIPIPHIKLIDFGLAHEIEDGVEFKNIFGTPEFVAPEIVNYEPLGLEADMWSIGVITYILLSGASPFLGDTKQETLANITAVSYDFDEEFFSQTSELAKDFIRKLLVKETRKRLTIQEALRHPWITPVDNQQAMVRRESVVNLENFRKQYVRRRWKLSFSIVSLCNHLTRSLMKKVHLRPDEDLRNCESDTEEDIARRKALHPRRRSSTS
Sequence of Non-receptor tyrosine-protein kinase TYK2 (Homo sapiens) (P29597 whole entry): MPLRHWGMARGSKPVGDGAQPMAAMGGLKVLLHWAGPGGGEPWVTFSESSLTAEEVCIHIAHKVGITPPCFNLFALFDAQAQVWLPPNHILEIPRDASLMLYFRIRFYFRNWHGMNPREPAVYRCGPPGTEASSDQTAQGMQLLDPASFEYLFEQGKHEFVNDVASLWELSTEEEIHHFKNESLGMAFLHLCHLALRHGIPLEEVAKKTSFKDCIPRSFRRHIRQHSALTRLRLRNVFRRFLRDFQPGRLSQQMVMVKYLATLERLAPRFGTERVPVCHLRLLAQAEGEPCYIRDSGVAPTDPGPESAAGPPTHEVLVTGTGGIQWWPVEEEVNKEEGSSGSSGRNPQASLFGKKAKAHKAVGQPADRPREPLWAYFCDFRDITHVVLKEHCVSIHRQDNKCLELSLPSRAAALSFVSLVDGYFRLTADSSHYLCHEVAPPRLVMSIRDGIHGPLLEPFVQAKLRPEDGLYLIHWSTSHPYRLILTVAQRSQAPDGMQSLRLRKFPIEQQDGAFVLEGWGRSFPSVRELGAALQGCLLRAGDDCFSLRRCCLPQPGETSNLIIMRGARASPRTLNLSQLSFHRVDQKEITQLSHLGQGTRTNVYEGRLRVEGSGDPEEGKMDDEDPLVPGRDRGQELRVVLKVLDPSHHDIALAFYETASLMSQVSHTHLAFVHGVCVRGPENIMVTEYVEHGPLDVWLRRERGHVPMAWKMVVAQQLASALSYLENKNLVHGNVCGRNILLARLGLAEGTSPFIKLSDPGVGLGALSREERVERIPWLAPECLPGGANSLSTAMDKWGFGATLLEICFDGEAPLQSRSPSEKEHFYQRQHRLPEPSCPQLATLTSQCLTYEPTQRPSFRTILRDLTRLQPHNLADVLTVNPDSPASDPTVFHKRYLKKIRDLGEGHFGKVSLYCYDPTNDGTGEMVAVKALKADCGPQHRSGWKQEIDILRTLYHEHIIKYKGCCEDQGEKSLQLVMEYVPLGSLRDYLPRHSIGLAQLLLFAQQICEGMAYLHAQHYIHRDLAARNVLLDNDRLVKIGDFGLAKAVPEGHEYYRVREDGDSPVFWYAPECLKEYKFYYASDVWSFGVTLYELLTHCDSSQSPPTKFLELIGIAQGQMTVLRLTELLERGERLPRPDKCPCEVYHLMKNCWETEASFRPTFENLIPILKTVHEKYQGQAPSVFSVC
Sequence of Casein kinase II subunit alpha' (Homo sapiens) (P19784 whole entry, looked up): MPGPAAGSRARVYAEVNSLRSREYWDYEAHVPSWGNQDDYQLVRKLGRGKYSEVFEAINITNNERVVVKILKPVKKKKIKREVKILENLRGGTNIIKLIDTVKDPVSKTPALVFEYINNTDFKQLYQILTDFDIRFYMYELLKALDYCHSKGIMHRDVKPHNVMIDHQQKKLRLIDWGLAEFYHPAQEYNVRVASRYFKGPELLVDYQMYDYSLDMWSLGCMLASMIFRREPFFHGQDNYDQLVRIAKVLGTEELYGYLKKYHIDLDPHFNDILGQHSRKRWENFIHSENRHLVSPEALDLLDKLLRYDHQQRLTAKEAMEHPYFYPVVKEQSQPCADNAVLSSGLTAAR

Row | SMILES | inhibition [1] | residual activity [2] | residual activity [3] | residual activity [4] | residual activity [5] | residual activity [6] | residual activity [7] | residual activity [8] | residual activity [9] | residual activity [10] | residual activity [11] | residual activity [12] | residual activity [13] | residual activity [14] | residual activity [15] | residual activity [16] | residual activity [17] | residual activity [18] | Ki [19] | residual activity [20] | further results
1 | Cn1cc(Cl)c2c(Oc3c(F)cc(Nc4cc(Cl)nc(N)n4)cc3F)ccnc21 [BAY-4900] | 3.19% | 100% | 75% | 100% | 89% | 100% | 100% | 82% | 93% | 100% | 94% | 95% | 100% | 74% | 85% | 96% | 85% | 96% | 391 nM | 100% | residual activity [21]: 96%; residual activity [22]: 86%
2 | Cc1c[nH]c2nccc(Oc3c(F)cc(Nc4cc(Cl)nc(N)n4)cc3F)c12 [BAY-549] | -0.06% | 99% | 100% | 84% | 86% | 100% | 89% | 100% | 100% | 100% | 76% | 89% | 100% | 55% | 85% | 90% | 89% | 100% | 187 nM | 100% | residual activity [21]: 76%; residual activity [22]: 56%
